Values of other authors in publication PMC4891577, “Exploiting Phenylpropanoid Derivatives to Enhance the Nutraceutical Values of Cereals and Legumes” (Frontiers in Plant Science, 2016).

System: Caco-2 cells
Design: method as in Hart et al., 2015
Conditions: polyphenols of black bean seed coats; ref Hart et al., 2015

Row | Compound | effect on Fe uptake
1 | O=C(O)c1ccc(O)c(O)c1 [3,4-dihydroxybenzoic acid] | promote Fe uptake
2 | O.Oc1cc(O)c2c(c1)O[C@H](c1ccc(O)c(O)c1)[C@@H](O)C2 [Catechin] | promote Fe uptake
3 | O=c1c(O[C@@H]2O[C@H](CO)[C@@H](O)[C@H](O)[C@H]2O)c(-c2ccc(O)cc2)oc2cc(O)cc(O)c12 [kaempferol 3-glucoside] | promote Fe uptake
4 | O=c1c(O)c(-c2ccc(O)cc2)oc2cc(O)cc(O)c12 [kaempferol] | promote Fe uptake
5 | O=c1c(OC2O[C@H](CO)[C@@H](O)[C@H](O)[C@H]2O)c(-c2cc(O)c(O)c(O)c2)oc2cc(O)cc(O)c12 (stereo partly drawn) [myricetin 3-glucoside] | inhibit Fe uptake
6 | O=c1c(O)c(-c2cc(O)c(O)c(O)c2)oc2cc(O)cc(O)c12 [myricetin] | inhibit Fe uptake
7 | O=c1c(O[C@@H]2O[C@H](CO)[C@@H](O)[C@H](O)[C@H]2O)c(-c2ccc(O)c(O)c2)oc2cc(O)cc(O)c12 [quercetin 3-glucoside] | inhibit Fe uptake
8 | O=c1c(O)c(-c2ccc(O)c(O)c2)oc2cc(O)cc(O)c12 [quercetin] | inhibit Fe uptake

System: lipogenic proteins
Design: method as in Chavez-Santoscoy et al., 2014; Ramírez-Jiménez et al., 2015
Conditions: black bean flavonoid; ref Chavez-Santoscoy et al., 2014; Ramírez-Jiménez et al., 2015

Row | Compound | effect on expression of lipogenic proteins
9 | O=c1c(O[C@@H]2O[C@H](CO)[C@@H](O)[C@H](O)[C@H]2O)c(-c2ccc(O)c(O)c2)oc2cc(O)cc(O)c12 [quercetin 3-glucoside] | strong effects on down-regulation of expression of lipogenic proteins
